Test results: patent publication US11369618B2, “Compounds, compositions and methods for prevention and/or treatment of cancer” (THE TRUSTEES OF THE UNIVERSITY OF PENNSYLVANIA, priority 2016, dated 2022)
“Also recorded” adds a separate entry of the source.

What was measured:
[1] = tested on: mouse and human melanoma cell lines (B16F10, WM46, WM51, WM3702); experiment: melanin assay (differentiation) of mouse and human melanoma cell lines in vitro; assay type: cell-based; conditions: estrogen 25 nM E2, G-1 100 nM, vs delivery vehicle
From the text: FIGS. 4A-4F illustrate the finding that GPER signaling slows proliferation and drives differentiation in mouse and human melanoma. FIG. 4A: 5 day proliferation assay of B16F10, WM46 (BRAF^V600E), WM51 (BRAF^V600E), and WM3702 (NRAS^Q61L) cells treated with estrogen (E2), * denotes significance by a two-tailed T-test, n=3 per group. FIG. 4B: 5 day melanin assay of B16F10, WM46 (BRAF^V600E), WM51 (BRAF^V600E), and WM3702 (NRAS^Q61L) cells treated with E2, * denotes significance by a two-tailed T-test, n=3 per group. FIG. 4C: 5 day proliferation assay of B16F10, WM46 (BRAF^V600E), WM51 (BRAF^V600E) and WM3702 (NRAS^Q61L) cells treated with GPER agonist (G-1), * denotes significance by a two-tailed T-test, n=3 per group. FIG. 4D: 5 day melanin assay of B16F10, WM46 (BRAF^V600E), WM51 (BRAF^V600E), and WM3702 (NRAS^Q61L) cells treated with G-1, * denotes significance by a two-tailed T-test, n=3 per group. FIG. 4E: 3 day proliferation assay of B16F10 cells treated with a dose response of G-1, * denotes significance One-way ANOVA with Tukey's multiple comparison test, n=5 per group. FIG. 4F: Western blot of B16F10 cells treated for 16 hours with a saturating dose response of G-1. […]
Tumor cell proliferation slowed in both mouse and human melanoma cells following treatment with estrogen or G-1, a specific GPER agonist. […] Cell proliferation and differentiation (melanin production) were measured.

[2] = tested on: mouse melanoma cell line B16F10; experiment: in vivo treatment with G-1 of B16F10 melanoma (FIG. 6); conditions: B16F10, FIG. 6
[3] = tested on: YUMM 1.7 cells (BRafV600E/wt Pten−/−Cdkn2−/−); experiment: YUMM 1.7 melanoma in C57BL/6 mice treated with G-1 with and without αPD-1; assay type: in vivo, mouse; conditions: YUMM 1.7, treatment initiated at day 14
From the text: FIGS. 14A-14F illustrate the finding that treatment of melanoma bearing mice with G-1 and αPD-1 immunotherapy dramatically extends survival. FIG. 14A: Experimental timeline of B16F10 bearing mice treated with vehicle or G-1, as well as αPD-1 antibody or isotype antibody control (2A3), n=10 per group. FIG. 14B: Tumor volumes of treatment groups at Day 14, * denotes significance One-way ANOVA with Tukey's multiple comparison test. FIG. 14C: Survival curve of mice treated with vehicle or G-1, as well as isotype antibody control (2A3) or αPD-1 antibody. FIG. 14D: Experimental outline of YUMM1.7 bearing mice treated with vehicle or G-1, as well as isotype antibody control (2A3) or αPD-1 antibody. Treatment was started at day 14 after tumors reached 4-5 mm in diameter. n=5 per group. FIG. 14E: Tumor volumes over time of treatment groups. FIG. 14F: Survival curve of mice treated with vehicle or G-1, as well as αPD-1 antibody or isotype antibody control (2A3).
Although B16F10 melanoma is the most commonly used model for melanoma immunology studies, and experimental results have largely translated to humans, B16F10 lacks the BRaf or NRas oncodriver mutations present in most human melanomas. […]

[4] = tested on: tumor infiltrating immune cells; experiment: immune profiling of tumors in YUMM 1.7 melanoma bearing mice; assay type: in vivo, mouse
From the text: FIGS. 15A-15C illustrate the finding that G-1 treatment in vivo alters tumor infiltrating immune cells. […] FIG. 15B: Heatmap summarizing immune profiling across biological replicates, n=5 per group, * denotes significance by two-way ANOVA assuming each immune population is an independent measurement of immune activation. FIG. 15C: Quantification of individual immune populations from FIG. 15B, n=5 per group.

B16F10 melanoma cells = experiment: melanoma cells treated with G-1, HDACi, or in combination (Western blot, B16F10 proliferation assay); assay type: cell-based
From the text: FIG. 16B: Western blot of p-RB, c-Myc, and H3K56ac in melanoma cells after treatment with G-1, HDACi, or in combination. FIG. 16C: Proliferation assay of B16F10 melanoma cells after treatment with G-1, HDACi, or in combination.
Histone acetyl marks are removed by several histone deacetylases (HDACs), which are aberrantly regulated in many cancers. Although HDAC inhibitors are approved as anticancer agents for cutaneous lymphoma, myeloma, and […], their utility in melanoma is unclear. […] HDAC efficacy may have been limited by the fact that trials were conducted without a differentiation driver to promote formation of acetylation marks on histones or other critical oncoproteins (such as c-Myc) that would then be stabilized by the HDACi. Without wishing to be limited by any theory, the anticancer effects of HDAC inhibitors can be potentiated by combination drug regimens that also promote histone acetylation at functionally critical sites. HDACi and GPER agonists independently promote melanoma cell differentiation, and also cooperate to potentiate the activity of each other (FIGS. 16B-16C).

PDAC cell lines = experiment: proliferation assay of PDAC cell lines treated with G-1; assay type: cell-based; conditions: 500 nM over 5 days
NSCLC line LLC1 = experiment: proliferation assay of LLC1 treated with G-1; assay type: cell-based; conditions: LLC1, 500 nM, 6 days
Experimental: FIGS. 18A-18G illustrate the finding that GPER signaling reduces NSCLC cell proliferation in vitro and in vivo and has combinatorial effects with αPD-1 immunotherapy. FIG. 18A: Western blot for pCREB of LLC1 cells treated with 500 nM G-1 for 30 minutes. FIG. 18B: Proliferation assay of LLC1 treated with 500 nM G-1 for 6 days. FIG. 18C: Western blot for c-Myc of LLC1 cells treated with 500 nM G-1 for 6 days. FIG. 18D: Western blot for c-Myc of LLC1 cells treated with 500 nM G-1 over a time-course. […] FIG. 18F: Tumor volumes over time of LLC1 tumor bearing mice treated with vehicle or G-1, as well as αPD-1 antibody or isotype antibody control (2A3). FIG. 18G: Survival curve of mice treated with vehicle or G-1, as well as αPD-1 antibody or isotype antibody control (2A3).

[5] = tested on: pCREB and c-Myc in NSCLC line TC-1; experiment: Western blot of TC-1 cells treated with G-1; assay type: cell-based; conditions: TC-1, 500 nM, 1 hour

CC(=O)c1ccc2c(c1)[C@@H]1C=CC[C@@H]1[C@H](c1cc3c(cc1Br)OCO3)N2 (relative stereo) [Compound G-1, rel-1-[4-(6-bromo-1,3-benzodioxol-5-yl)-3aR,4S,5,9bS-tetrahydro-3H-cyclopenta[c]quinolin-8-yl]-ethanone]
differentiation (melanin production) [1]: drove differentiation
tumor growth in vivo [2]: inhibited tumor growth in vivo; also recorded: inhibits mouse melanoma cell line B16F10 growth in vivo
survival [3]: modest, but significant, survival increases
tumor infiltrating immune cell subsets [4]: increased several immune cell subsets, including T cells and NK cells
combined effect of G-1 and HDACi in melanoma cells (B16F10 melanoma cells): synergizes with HDAC inhibitors
proliferation rates (PDAC cell lines): inhibited
proliferation (NSCLC line LLC1): decreased proliferation
pCREB and c-Myc signaling effects [5]: the same signaling effects also occur
